This is an account of results in patent US20070129357A1, “Novel crystals of fluorobenzamide derivative” (priority 2003, published 2007).

“Also recorded” adds a separate entry of the source.

Data set [1] can be described thus: Hygroscopicity of the crystals (FIG. 5 and FIG. 6). It is filed as physicochemical. The following applies: crystal forms of compound A compared, FIG. 5 (α-type, Example 3) and FIG. 6 (β-type, Example 2); monophosphate.
The next data set has as its system If current. Particulars: stated as known from WO 00/75133; cited from earlier work.

With `COc1cc2c(cc1OC)CN(C(=O)[C@@H]1CCCN(CCNC(=O)c3ccc(F)cc3)C1)CC2.O=P(O)(O)O` [β-type crystal, (−)-N-{2-[(R)-3-(6,7-dimethoxy-1,2,3,4-tetrahydroisoquinoline-2-carbonyl)piperidino]ethyl}-4-fluorobenzamide monophosphate], the melting point (as a rule, the temperature, or range, at which the solid turns liquid) lay within 195.5 to 196.3 °C. Compound `COc1cc2c(cc1OC)CN(C(=O)[C@@H]1CCCN(CCNC(=O)c3ccc(F)cc3)C1)CC2.O=P(O)(O)O` [α-type crystal, (−)-N-{2-[(R)-3-(6,7-dimethoxy-1,2,3,4-tetrahydroisoquinoline-2-carbonyl)piperidino]ethyl}-4-fluorobenzamide monophosphate] registered a melting point of 203.8 to 204.7 °C. Further, the hygroscopicity result in data set [1] is recorded as “particularly good hygroscopicity; also recorded: superior to the β-type crystal in terms of hygroscopicity”. Consider `COc1cc2c(cc1OC)CN(C(=O)[C@@H]1CCCN(CCNC(=O)c3ccc(F)cc3)C1)CC2.O=P(O)(O)O` [compound A, (−)-N-{2-[(R)-3-(6,7-dimethoxy-1,2,3,4-tetrahydroisoquinoline-2-carbonyl)piperidino]ethyl}-4-fluorobenzamide monophosphate], for which the “inhibitory action for If current” value in the data set on If current is “inhibitory action for If current”.
